Experimental findings from PubChem BioAssay (NCI) are described below.

Some test systems named below: SF-295 CNS; SK-MEL-28 melanoma; LOX IMVI melanoma; SR leukemia; ACHN renal; HL-60(TB) leukemia; CAKI-1 renal; OVCAR-3 ovarian; NCI-H23 lung; NCI-H460 lung.
What all share (assay): NCI tumour cell line growth inhibition, 48 h

Several values for one entry are separate records, joined by “and”; a condition that tells them apart may be missing. Equal values may be shown once.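 Values below derive from 48-hour exposures of cells grown in 96-well plates, with endpoints linearly interpolated between the two concentrations bracketing the appropriate inhibition level. GI50 marks 50% less growth. TGI is the concentration that stops growth completely.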

Consider `COc1ccc2cc(-c3c(-c4ccncc4)nc(-c4ccc(S(C)(=O)=O)cc4C)n3C)ccc2c1`, for which the GI50 in the test with SF-295 CNS is 7.83 µM; in the test on SK-MEL-28 melanoma, 9.28 µM; in the test on LOX IMVI melanoma it was 9.01 µM; in the test with SR leukemia, 13 µM; with ACHN renal it was 8.36 µM; in the test on HL-60(TB) leukemia, 6.54 µM. Also, the GI50 in the test on CAKI-1 renal was 8.73 µM; in the test with OVCAR-3 ovarian, 6.97 µM; with NCI-H23 lung, 7.99 µM; with NCI-H460 lung, 7.77 µM. Further, the TGI is more than 25 µM in the test with SF-295 CNS; 24.9 µM in the test on SK-MEL-28 melanoma; more than 25 µM in the test on LOX IMVI melanoma; more than 25 µM in the test on SR leukemia; more than 25 µM in the test with ACHN renal; 21.7 µM with HL-60(TB) leukemia. Also, the TGI in the test on CAKI-1 renal is more than 25 µM; with OVCAR-3 ovarian, more than 23.5 µM; in the test with NCI-H23 lung it was more than 25 µM; in the test on NCI-H460 lung, more than 25 µM.

Turning to `CN1CC[C@]2(C)c3ccc(O)cc3CC3CCCC1C32C` (some centres not stated), the TGI with SF-295 CNS, in the test with SK-MEL-28 melanoma, with LOX IMVI melanoma, in the test with SR leukemia, in the test on ACHN renal and with HL-60(TB) leukemia was more than 100 µM throughout. In addition, the TGI with CAKI-1 renal, in the test on OVCAR-3 ovarian, in the test with NCI-H23 lung and with NCI-H460 lung was more than 100 µM throughout.

In the case of `COc1ccc(-c2oc3c(OC)c(OC)c(OC)c(OC)c3c(=O)c2OC)cc1OC`, the TGI in the test with SF-295 CNS was more than 100 µM; in the test with SK-MEL-28 melanoma, more than 100 µM; in the test with LOX IMVI melanoma it was more than 100 µM; in the test on SR leukemia it was 79.9 µM; in the test with ACHN renal it was more than 100 µM; in the test on HL-60(TB) leukemia, 46.7 µM. In addition, the TGI in the test on CAKI-1 renal was more than 100 µM; with OVCAR-3 ovarian, 54.4 µM; in the test with NCI-H23 lung, more than 100 µM; in the test on NCI-H460 lung, 57 µM.

`COc1ccc(Cn2c3c(cc(OS(=O)(=O)C(F)(F)F)c2=O)Cc2ccccc2-3)cc1`: the GI50 is 31.7 µM with SF-295 CNS; 22.8 µM in the test on SK-MEL-28 melanoma; 6.82 µM in the test on LOX IMVI melanoma; 5.25 µM in the test on ACHN renal; 3.6 µM in the test with HL-60(TB) leukemia; 53 µM in the test on CAKI-1 renal. Besides, the GI50 with OVCAR-3 ovarian is 5.12 µM; in the test with NCI-H23 lung, 8.26 µM. The TGI is 50 µM and > 100 µM with SF-295 CNS; 50 µM and > 100 µM in the test with SK-MEL-28 melanoma; 50 µM and > 100 µM in the test on LOX IMVI melanoma; 50 µM and 20.1 µM in the test with SR leukemia; 50 µM and > 100 µM with ACHN renal; 46.2 µM and 17 µM in the test with HL-60(TB) leukemia. Besides, the TGI in the test on CAKI-1 renal is 50 µM and > 100 µM; in the test with OVCAR-3 ovarian, 50 µM and > 100 µM; in the test with NCI-H23 lung, 50 µM and > 100 µM; with NCI-H460 lung it was 50 µM and 36.4 µM.

On to `C=CC(=O)Nc1cc2c(Nc3ccc(F)c(Cl)c3)ncnc2cc1OCCCN1CCOCC1`, for which the GI50 was 4.12 µM in the test on SF-295 CNS; 1.67 µM and > 6.85 µM in the test with SK-MEL-28 melanoma; 1.29 µM and 1.69 µM in the test with LOX IMVI melanoma; 1.72 µM and 2.3 µM in the test with SR leukemia; < 0.01 µM and 0.0448 µM in the test with ACHN renal; 2 µM and 1.73 µM in the test on HL-60(TB) leukemia. Also, the GI50 is 1.52 µM and 1.3 µM in the test with OVCAR-3 ovarian; 1.82 µM and 2.39 µM in the test with NCI-H23 lung; 3.65 µM and 5.27 µM in the test on NCI-H460 lung. Moreover, the TGI is 17.4 µM and > 10 µM in the test on SF-295 CNS; 3.21 µM and > 10 µM with SK-MEL-28 melanoma; 2.7 µM and 3.32 µM in the test on LOX IMVI melanoma; > 21 µM and 6.51 µM with SR leukemia; 2.11 µM and > 10 µM in the test on ACHN renal; 4.88 µM and 7.33 µM in the test on HL-60(TB) leukemia. Also, the TGI is 2.67 µM and > 10 µM with CAKI-1 renal; 4.63 µM and > 8.9 µM in the test on OVCAR-3 ovarian; 3.94 µM and > 6.12 µM with NCI-H23 lung; 15.4 µM and > 10 µM in the test with NCI-H460 lung.

Take `CCOc1cccc(/C=N/NC(=O)C(=O)Nc2cccc(C(F)(F)F)c2)c1O`: the GI50 with SF-295 CNS is 0.372 µM; in the test with SK-MEL-28 melanoma, 5.51 µM; in the test with LOX IMVI melanoma it was 1.44 µM; with SR leukemia, 0.705 µM; in the test on ACHN renal it was 1.03 µM; in the test on HL-60(TB) leukemia it was 0.89 µM. In addition, the GI50 is 0.528 µM in the test with CAKI-1 renal, 0.407 µM in the test with OVCAR-3 ovarian, 4.57 µM in the test with NCI-H23 lung and 0.808 µM with NCI-H460 lung. The TGI was 7.97 µM with SF-295 CNS; more than 100 µM with SK-MEL-28 melanoma; 22.2 µM in the test on LOX IMVI melanoma; 15.4 µM in the test on SR leukemia; 25.3 µM with ACHN renal; 4.45 µM in the test on HL-60(TB) leukemia. The TGI was 6.49 µM with CAKI-1 renal, more than 100 µM in the test on OVCAR-3 ovarian, more than 100 µM in the test with NCI-H23 lung and 60.3 µM in the test with NCI-H460 lung.

`NC(=S)NNc1c([N+](=O)[O-])cnn(-c2ccccc2)c1=O`: the TGI is 29.4 µM with SF-295 CNS; 30.8 µM in the test with SK-MEL-28 melanoma; 23.7 µM in the test with LOX IMVI melanoma; more than 100 µM in the test with SR leukemia; 32.7 µM in the test on ACHN renal; 19.3 µM in the test on HL-60(TB) leukemia. Moreover, the TGI in the test on CAKI-1 renal was found to be 33.9 µM; in the test with OVCAR-3 ovarian, 32.1 µM; with NCI-H23 lung, 34.4 µM; in the test on NCI-H460 lung it was 34 µM.

Take `CNCCn1c(=O)c2cc(OC)c(OC)cc2c2ccc3cc4c(cc3c21)OCO4`: the GI50 with SF-295 CNS is 0.0346 µM; in the test on SK-MEL-28 melanoma, 0.555 µM; in the test with LOX IMVI melanoma it was 0.0577 µM; in the test on SR leukemia it was 0.0173 µM; with ACHN renal, 0.0822 µM; in the test on HL-60(TB) leukemia, 0.173 µM. In addition, the GI50 in the test on CAKI-1 renal was 0.0718 µM; in the test with OVCAR-3 ovarian, 0.162 µM; with NCI-H23 lung, 0.112 µM; with NCI-H460 lung, 0.0226 µM. Also, the TGI is 0.359 µM in the test on SF-295 CNS; 2.69 µM in the test on SK-MEL-28 melanoma; 0.173 µM with LOX IMVI melanoma; 0.972 µM with SR leukemia; 0.368 µM with ACHN renal; 0.864 µM with HL-60(TB) leukemia. The TGI with CAKI-1 renal was 0.588 µM; with OVCAR-3 ovarian, 1.25 µM; in the test with NCI-H23 lung, 0.556 µM; in the test on NCI-H460 lung it was 0.558 µM.

Consider `CC(CCC(=O)O)C(=O)O` (configuration not stated), for which the TGI with SF-295 CNS, in the test on SK-MEL-28 melanoma, in the test with LOX IMVI melanoma, in the test on SR leukemia, with ACHN renal and in the test on HL-60(TB) leukemia was more than 100 µM in each case. Moreover, the TGI with CAKI-1 renal, in the test on OVCAR-3 ovarian, with NCI-H23 lung and with NCI-H460 lung was more than 100 µM throughout.
